Measured values: article PMC7851594 (Genome Biology and Evolution, 2020)

Columns and labels:
drT2R3a [1] = biological target: T1, drT2R3a (Danio rerio, UniProt Q2AB30); type: cell-based
T1 sequence (Q2AB30 1-313): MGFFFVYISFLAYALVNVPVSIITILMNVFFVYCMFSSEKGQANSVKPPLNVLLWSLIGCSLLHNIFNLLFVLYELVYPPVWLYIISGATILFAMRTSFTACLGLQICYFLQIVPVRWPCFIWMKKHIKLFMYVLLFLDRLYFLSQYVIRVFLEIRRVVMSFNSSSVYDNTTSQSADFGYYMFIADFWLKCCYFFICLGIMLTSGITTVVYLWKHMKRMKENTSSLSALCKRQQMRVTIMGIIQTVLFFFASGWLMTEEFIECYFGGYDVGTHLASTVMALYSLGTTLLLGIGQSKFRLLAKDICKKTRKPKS

drT2R3a [2] = biological target: T1, drT2R3a; type: cell-based; remark: listed apart in the source

SMILES	EC50 (drT2R3a [1])	IC50 (drT2R3a [2])
CC[N+](CC)(CC(=O)Nc1c(C)cccc1C)Cc1ccccc1 [DB, Denatonium benzoate]	230 ± 20 µM	
O=C1NS(=O)(=O)c2ccccc21 [saccharin]		920 ± 280 µM
